In patent US5599548A, “Skin care compositions containing fatty acid amides and retinol or retinyl ester” (priority 1995, dated 1997):
“Also recorded” adds a separate entry of the source. Read-outs that look alike come from different tables or passages of the source.

What was measured:
Human keratinocytes = assay: 3H-Thymidine incorporation (keratinocyte proliferation); type: cell-based; details: for increase of thymidine incorporation/proliferation over ethanol control: retinol 2.5×10^-8 M; for activity at 0.025 µM: 2.5 × 10^-8 M
Description: (§1) Human keratinocytes, isolated from neonatal foreskin by trypsin treatment were grown in Dulbecco Modification Eagle (DME) Hams F12 (1:1) medium/10% fetal calf serum in the presence of irradiated 3T3 mouse fibroblasts for establishing dividing keratinocyte colonies. Cells were grown under the above condition until their second passage and kept frozen for future use. […] On day 7, when the cells were 80-90% confluent, they were trypsinized and plated in the serum-free medium for the various experiments.
The incorporation of […] by cultured keratinocytes was used as an assay of keratinocyte proliferation. Thymidine is one of four deoxynucleosides which are the monomeric units of DNA, the universal library of genetic information in the animal kingdom. Prior to cell division of a somatic cell such as a keratinocyte, the complete genome of the cell undergoing cell division is replicated. This involves large scale DNA synthesis by the cell and enables both daughter cells to receive identical copies of the genetic material. When ^3 H-thymidine is included in the culture media of keratinocytes which are synthesizing DNA in preparation for cell division then the labelled nucleoside is incorporated into the newly synthesized DNA. The extent of incorporation of ^3 H-thymidine into a population of cells is proportional to the rate of DNA synthesis by this population of cells and therefore an indication of their cellular proliferation.
Keratinocytes (that were cultured as described above) were plated in 24 well plates at a density of 40,000 cells per well in 1 ml media. After incubation for four days or until the cells were 60-70% confluent, the media was changed. Test compounds were added (in triplicate) to the wells 24 hours after the media change, and four hours later 1μCi^3 H-Thymidine in 50 μl media was added per well. Cells were incubated for a further 24 hours. Media was removed from the cells, 10% ice cold trichloroacetic acid (TCA) added and plates were incubated on ice for 30 minutes. Cells were washed five times with 5% TCA and allowed to dissolve in 500 μl 0.1M NaOH for at least one hour (usually overnight). The preparations were neutralized with 0.1M HCl; 50 μl of the cell preparation was used to determine total protein content. Disintegrations per minute (DPM) from ^3 H labelling of DNA was determined by liquid scintillation counting of […] of the cell preparation. Thymidine incorporation results were expressed as DPM/μg protein.

[1] = tested on: TGase I (keratinocyte transglutaminase level); assay: Transglutaminase (TGase I) ELISA assay (keratinocyte differentiation); type: cell-based, human
Description: as §1
During the process of terminal differentiation in the epidermis, a 15 nm thick layer of protein, known as the cornified envelope (CE) is formed on the inner surface of the cell periphery. The CE is composed of numerous distinct proteins which have been cross-linked together by the formation of N^ε -(γ-glutamyl) lysine isodipeptide bonds catalyzed by the action of at least two different transglutaminases (TGases) expressed in the epidermis. TGase I is expressed in abundance in the differentiated layers of the epidermis, especially the granular layer, but is absent in the undifferentiated basal epidermis. Thus TGase I is a useful marker of epidermal keratinocyte differentiation with high TGase I levels indicating a more differentiated state. An ELISA based TGase I assay, using a TGase I antibody, was used to assess the state of differentiation of the cultured keratinocytes in the examples that follow.
Keratinocytes (cultured as described above) were plated in 96 well plates at a density of 3,000 cells per well in 200 μl media. After incubation for four days the media was changed to media containing test compounds (six replicates per test). The cells were cultured for a further 72 hours after which time the media was aspirated and the plates stored at -70° C. Plates were removed from the freezer, and the cells washed with PBS. 100 μl sterile water was added and the cells were freeze fractured by freezing at -70° C. then thawing. The cells were incubated for one hour at room temperature (R/T) with PBS/3% BSA (wash buffer, bovine serum albumin), then rinsed with a fresh aliquot of wash buffer. Cells were incubated with 50 μl of primary antibodies monoclonal anti-human transglutaminase (IgG) obtained from Amersham (mouse) diluted 1:300 in wash buffer for one hour, 37° C. then rinsed two times with wash buffer. Cells were then incubated with 50 μl of secondary antibody (Feb fragment, peroxidase conjugated anti-mouse IgG obtaining from Amersham) diluted 1:200 in wash buffer for one hour at 37° C., then rinsed two times with wash buffer. Cells were incubated with substrate solution (4 mg o-phenylene diamine and 3.3 μl 30% H2 O2 in 10 ml 0.1M citrate buffer pH 5.0) for five minutes, R/T, in darkness (under aluminum foil). The reaction was stopped by the addition of 50 μl 4N H2 SO4. The absorbance of samples was read at 492 nm in the plate reader. Out of the six replicates, four were treated with both antibodies, two were treated only with the secondary antibody (i.e., to determine background binding of enzyme conjugated Ab). TGase levels were determined by subtracting background from the readings from each treatment and determining mean ±s.d. for the replicates exposed to both Ab.

[2] = concentrations as in the respective Example
[3] = Table 3B, RA, RP 2.5 × 10^-7 M, linoleoyl-DEA 10^-6 M, alone or combined, n = 3
[4] = Table 4A, RA, retinol 2.5 × 10^-7 M, cocoyl-DEA 10^-7 M, alone or combined, n = 3
[5] = Table 4B, RA, retinol 2.5 × 10^-8 M, cocoyl-MEA 10^-8 M, alone or combined, n = 3
[6] = Table 5B, RA, retinol 2.5 × 10^-8 M, methyl linoleate 10^-8 M, alone or combined, n = 3

Compound: CC1=C(/C=C/C(C)=C/C=C/C(C)=C/C(=O)O)C(C)(C)CCC1 [RA, retinoic acid]
- increase of thymidine incorporation/proliferation over ethanol control (Human keratinocytes; Example 2A, RA, linoleoyl-DEA 10^-9 M): 26%
- increase of thymidine incorporation/proliferation over ethanol control (Human keratinocytes; Example 4C, RA, palmitoyl-MEA 10^-6 M): 16%
- increase of thymidine incorporation/proliferation over ethanol control (Human keratinocytes; Example 4D, RA, linoleoyl-MEA 10^-9 M): 47%
- activity at 0.25 µM (Human keratinocytes; Homo sapiens, Keratinocyte, 24 h, Table 1A, first RA/ROH pair, 2.5 × 10^-7 M, 24 h, n = 3, read-out: thymidine incorporation, % control): 118%
- activity at 0.25 µM (Human keratinocytes; Homo sapiens, Keratinocyte, 24 h, Table 1A, second RA/ROH pair, 2.5 × 10^-7 M, 24 h, n = 3, read-out: thymidine incorporation, % control): 128%
- activity at 0.25 µM (Human keratinocytes; Homo sapiens, Keratinocyte, 24 h, Table 1A, third RA/ROH pair, 2.5 × 10^-7 M, 24 h, n = 3, read-out: thymidine incorporation, % control): 122%
- activity at 0.0025 µM (Human keratinocytes; Homo sapiens, Keratinocyte, 24 h, Table 3A, RA 2.5 × 10^-9 M, RP 2.5 × 10^-7 M, linoleoyl-DEA 10^-8 M, alone or combined, n = 3, read-out: thymidine incorporation, % control): 117%
- activity at 0.25 µM (Human keratinocytes; Homo sapiens, Keratinocyte, 24 h, Table 7A, 2.5 × 10^-7 M, 24 h, n = 9, read-out: mean Thymidine incorp/μg protein ± s.d): 113 ± 10.9%
- activity at 0.25 µM (Human keratinocytes; Homo sapiens, Keratinocyte, 24 h, Table 7A, 2.5 × 10^-7 M, 24 h, n = 9, read-out: thymidine incorporation, % control): 113%
- activity at 0.025 µM (Human keratinocytes; Homo sapiens, Keratinocyte, 24 h, Table 7A, 24 h, n = 9, read-out: mean Thymidine incorp/μg protein ± s.d): 125 ± 13.9%
- activity at 0.025 µM (Human keratinocytes; Homo sapiens, Keratinocyte, 24 h, Table 7A, 24 h, n = 9, read-out: thymidine incorporation, % control): 126%
- activity at 0.0025 µM (Human keratinocytes; Homo sapiens, Keratinocyte, 24 h, Table 7A, 2.5 × 10^-9 M, 24 h, n = 9, read-out: mean Thymidine incorp/μg protein ± s.d): 121 ± 12.8%
- activity at 0.0025 µM (Human keratinocytes; Homo sapiens, Keratinocyte, 24 h, Table 7A, 2.5 × 10^-9 M, 24 h, n = 9, read-out: thymidine incorporation, % control): 121%
- activation at 0.0025 µM (Human keratinocytes; Homo sapiens, Keratinocyte, read-out: increase of thymidine incorporation/proliferation over ethanol control): 17%
- mean Thymidine incorp./μg protein ± s.d (Human keratinocytes; Table 1A, first RA/ROH pair, 2.5 × 10^-7 M, 24 h, n = 3): 2475 ± 116 DPM/μg protein
- mean Thymidine incorp./μg protein ± s.d (Human keratinocytes; Table 1A, second RA/ROH pair, 2.5 × 10^-7 M, 24 h, n = 3): 2686 ± 72 DPM/μg protein
- mean Thymidine incorp./μg protein ± s.d (Human keratinocytes; Table 1A, third RA/ROH pair, 2.5 × 10^-7 M, 24 h, n = 3): 2556 ± 80 DPM/μg protein
- mean Thymidine incorp./μg protein ± s.d (Human keratinocytes; Table 2A, RA, ROH 2.5 × 10^-8 M, linoleoyl-DEA 10^-9 M, alone or combined, 24 h, normalized to ethanol control, n = 9): 1.255 ± 0.139
- mean Thymidine incorp./μg protein ± s.d (Human keratinocytes; Table 3A, RA 2.5 × 10^-9 M, RP 2.5 × 10^-7 M, linoleoyl-DEA 10^-8 M, alone or combined, n = 3): 1990 ± 61 DPM/μg protein
- mean Thymidine incorp./μg protein ± s.d (Human keratinocytes; Table 4C, RA, retinol 2.5 × 10^-8 M, palmitoyl-MEA 10^-6 M, alone or combined, control = 1.000, n = 3): 1.164 ± 0.113
- thymidine incorporation, % control (Human keratinocytes; Table 4C, RA, retinol 2.5 × 10^-8 M, palmitoyl-MEA 10^-6 M, alone or combined, n = 3, 1440 min): 116%
- thymidine incorporation, % control (Human keratinocytes; Table 4D, RA, ROH 2.5 × 10^-8 M, linoleoyl-MEA 10^-9 M, alone or combined, 24 h, n = 3): 147%
- mean Thymidine incorp./μg protein ± s.d (Human keratinocytes; Table 4D, RA, ROH 2.5 × 10^-8 M, linoleoyl-MEA 10^-9 M, alone or combined, 24 h, normalized to ethanol control, n = 3): 1.47 ± 0.36
- effect on keratinocyte proliferation, in words (Human keratinocytes; [2]): significantly increased keratinocyte proliferation; also recorded: increased thymidine incorporation
- activity at 0.25 µM ([1]; Homo sapiens, Keratinocyte, 72 h, Table 1B, 2.5 × 10^-7 M, 72 h, n = 3, read-out: Transglutaminase level, % control): 20%
- activity at 0.025 µM ([1]; Homo sapiens, Keratinocyte, 72 h, Table 1B, 2.5 × 10^-8 M, 72 h, n = 3, read-out: Transglutaminase level, % control): 62%
- activity at 0.0025 µM ([1]; Homo sapiens, Keratinocyte, 72 h, Table 1B, 2.5 × 10^-9 M, 72 h, n = 3, read-out: Transglutaminase level, % control): 84%
- activity at 1 µM ([1]; Homo sapiens, Keratinocyte, Table 5A, RA, retinol 2.5 × 10^-7 M, linoleic acid 10^-6 M, alone or combined, n = 3, read-out: TGase (TG1) level, % control): 0%
- activity at 0.25 µM ([1]; Homo sapiens, Keratinocyte, Table 8A, 2.5 × 10^-7 M, n = 3, read-out: TGase, % control): 34%
- activity at 0.025 µM ([1]; Homo sapiens, Keratinocyte, Table 8A, 2.5 × 10^-8 M, n = 3, read-out: TGase, % control): 64%
- activity at 0.0025 µM ([1]; Homo sapiens, Keratinocyte, Table 8A, 2.5 × 10^-9 M, n = 3, read-out: TGase, % control): 87%
- activity at 0.25 µM ([1]; Homo sapiens, Keratinocyte, Table 8B, 2.5 × 10^-7 M, n = 3, read-out: TGase, % control): 12%
- mean Transglutaminase ELISA level ± s.d ([1]; Table 1B, 2.5 × 10^-7 M, 72 h, n = 3): 0.088 ± 0.015
- mean Transglutaminase ELISA level ± s.d ([1]; Table 1B, 2.5 × 10^-8 M, 72 h, n = 3): 0.268 ± 0.068
- mean Transglutaminase ELISA level ± s.d ([1]; Table 1B, 2.5 × 10^-9 M, 72 h, n = 3): 0.360 ± 0.067
- TGase (TG1) level, % control ([1]; Table 2B, RA, ROH 2.5 × 10^-7 M, linoleoyl-DEA 10^-6 M, alone or combined, 72 h, n = 9): 28%
- mean TGase ± s.d ([1]; Table 2B, RA, ROH 2.5 × 10^-7 M, linoleoyl-DEA 10^-6 M, alone or combined, 72 h, normalized to ethanol control, n = 9): 0.283 ± 0.470
- TGase (TG1) level, % control [1, 3]: 33%
- mean TGase ± s.d [1, 3]: 0.073 ± 0.022
- TGase (TG1) level, % control [1, 4]: 33%
- mean TGase ± s.d [1, 4]: 0.058 ± 0.098
- TGase (TG1) level, % control [1, 5]: 29%
- mean TGase ± s.d [1, 5]: 0.036 ± 0.009
- mean TGase ± s.d ([1]; Table 5A, RA, retinol 2.5 × 10^-7 M, linoleic acid 10^-6 M, alone or combined, n = 3): -0.004 ± 0.103
- TGase (TG1) level, % control [1, 6]: 32%
- mean TGase ± s.d [1, 6]: 0.092 ± 0.030
- mean TGase level ± s.d ([1]; Table 6A (Effect on Keratinocyte TGase), RA, ROH 2.5 × 10^-7 M, formamide 10^-7 M, alone or combined, 72 h, n = 3): 0.137 ± 0.024
- TGase (TG1) level, % control ([1]; Table 6A, RA, ROH 2.5 × 10^-7 M, formamide 10^-7 M, alone or combined, 72 h, n = 3): 28%
- mean TGase level ± s.d ([1]; Table 6B (Effect on Keratinocyte TGase), RA, ROH 2.5 × 10^-7 M, acetamide 10^-7 M, alone or combined, 72 h, n = 3): 0.226 ± 0.069
- TGase (TG1) level, % control ([1]; Table 6B, RA, ROH 2.5 × 10^-7 M, acetamide 10^-7 M, alone or combined, 72 h, n = 3): 46%
- mean TGase level ± s.d ([1]; Table 6C (Effect on Keratinocyte TGase), RA, ROH 2.5 × 10^-7 M, pentanoyl-DEA 10^-7 M, alone or combined, 72 h, n = 3): 0.088 ± 0.015
- mean TGase ± s.d ([1]; Table 8A, 2.5 × 10^-7 M, n = 3): 0.073 ± 0.022
- mean TGase ± s.d ([1]; Table 8A, 2.5 × 10^-8 M, n = 3): 0.138 ± 0.034
- mean TGase ± s.d ([1]; Table 8A, 2.5 × 10^-9 M, n = 3): 0.190 ± 0.091
- mean TGase ± s.d ([1]; Table 8B, 2.5 × 10^-7 M, n = 3): 0.015 ± 0.025
- effect on keratinocyte TG1 levels / differentiation, in words [1, 2]: decreased keratinocyte differentiation; also recorded: repressed keratinocyte TG 1 levels completely; also recorded: significantly decreased keratinocyte TGase levels; also recorded: decreased transglutaminase I levels
